Values quoted from earlier work, collected in patent US20260284233A1, “IMAGING METHODS AND AGENTS FOR GRADING AND STAGING AND SUBSEQUENT TREATMENT OF PROSTATE CANCER IN A PATIENT” (Progenics Pharmaceuticals, Inc., priority 2023, published 2026).

How the values were obtained:
[1] = 333 MBq (9 mCi) dose; data from clinical trials; compared with commonly used tracers for oncologic imaging
[2] = test system: extracellular domain of PSMA

O=C(O)CC[C@H](NC(=O)N[C@@H](CCCCNC(=O)c1ccc([18F])nc1)C(=O)O)C(=O)O [piflufolastat F18]
mean effective radiation dose to the whole body [1]: lower than commonly used tracers for oncologic imaging
binding affinity to the extracellular domain of PSMA [2]: high affinity
